The results in this text go back to patent publication US10782295B2, “Cysteine-reactive ligand discovery in proteomes” (THE SCRIPPS RESEARCH INSTITUTE, priority 2013, dated 2020).

Test [1] concerns the target T1, WT-ZAK (Homo sapiens, UniProt Q9NYL2).
T1 construct: Full-length cDNA encoding human ZAK-13 (BC001401); expressed in transfected cells
Put plainly: gel-based ABPP with IA-rhodamine probe. Type of test: binding. The settings on record: 10, 50 and 100 μM, 30 min; HEK-293T lysate. The source says:
(§1) The gel signals for IA-labeling of WT-ZAK were blocked by pretreatment with HNE over a concentration range that closely matched the HNE-sensitivity profile observed for C22 in competitive isoTOP-ABPP experiments (FIG. 4b, compare to FIG. 3a). […] Considering further that C22 is predicted to reside adjacent to the ATP-binding loop of ZAK, we postulated that the HNE-induced loss of kinase activity might be due to blockade of ATP-binding.
Full-length cDNA encoding human ZAK-13 (BC001401) in pOTB7 was purchased from Open BioSystems and subcloned into pFLAG-CMV-6c (Sigma-Aldrich). ZAK-C22A and ZAK-K45M mutants were generated by QuikChange site-directed mutagenesis using the primer 5′-[…]-3′ (SEQ ID NO:1) and 5′-[…]-3′ (SEQ ID NO:2) and their complements. Wild-type and mutant ZAK were cloned into a modified pCLNCX retroviral vector. Retrovirus was prepared by taking 3.0 μg of each of pCLNCX and pCL-Ampho vectors and […], of FuGENE IID reagent (Roche) to transfect 60% confluent HEK-293T cells. […]
FLAG-tagged wild-type and C22A mutant ZAK were immunoprecipitated from HEK-293T cells ([…]). […] Gel samples were separated by SDS-PAGE (50 μL of sample/lane) and visualized in-gel using a Hitachi FMBio II flatbed laser-induced fluorescence scanner (MiraiBio, Alameda, Calif.). […]

Test [2] concerns the target T2, C22A-ZAK (Homo sapiens, UniProt Q9NYL2, C22A).
T2 construct: Full-length cDNA encoding human ZAK-13 (BC001401); expressed in transfected cells
Put plainly: ZAK in vitro kinase activity assay (MBP substrate). Type of test: biochemical. Particulars: 10 or 100 μM HNE; immunoprecipitated enzyme.
Text: as §1
(§2) The kinase activity assay protocol was adapted from Yu et al^5. Kinase assay buffers, Myeilin Basic Protein (MBP) substrate, and ATP stock solution were purchased from SignalChem. Radio-labeled [^33P]-ATP was purchased from PerkinElmer. 10 mg of soluble lysate of HEK-293T cells transfected with each of wild-type, C22A and K45M of ZAK were immunoprecipitated and then eluted with 2×300 μL FLAG-peptide buffer. […] The spotted P81 strips were air dried and then washed with 10 mL of 1% phosphoric acid for 3×10 min ZAK activity was measured by counting the radioactivity on the P81 paper in the presence of scintillation fluid in a scintillation counter after subtracting the value obtained from the corresponding no substrate control, and was normalized to that of ZAK-WT without HNE treatment. […]

Test [3] has as its target T1, WT-ZAK. Nature of the test: ZAK in vitro kinase activity assay (MBP substrate). The class given is biochemical. Particulars: 10 or 100 μM HNE; immunoprecipitated enzyme.
Text: as §1, §2

Structures are written as SMILES.

Regarding `CCCCCC(O)/C=C/C=O` (stereo not drawn) [4-HNE, 4-Hydroxynonenal], the “gel signals for IA-labeling of WT-ZAK after pretreatment” value in test [1] is given as “blocked”. Besides, the “ZAK catalytic activity, C22A-ZAK residual activity” value in test [2] is on record as “insensitive”. Moreover, in test [3], the “ZAK catalytic activity, WT-ZAK” value is “inhibited”.
